# Data published in ChEMBL document CHEMBL5390239, “A Novel 7H-[1,2,4]Triazolo[3,4-b]thiadiazine-based Cystic Fibrosis Transmembrane Conductance Regulator Potentiator Directed toward Treatment of Cystic Fibrosis” (ACS Med Chem Lett, 2023).
# pEC50: −log10 of the molar value. Activity calls are given as the source filed them. The rule behind the calls is not given here.
# Molecular target: Cystic fibrosis transmembrane conductance regulator (Homo sapiens, UniProt P13569, G551D)
# Assay: Potentiation of CFTR G551D mutant (unknown origin) expressed in FRT cells assessed as increase in chloride current in presence of VX-770 by voltage clamp electrophysiology recording
# Type: cell-based
# Settings: not given
# Cystic fibrosis transmembrane conductance regulator, sequence (P13569 whole entry G551D): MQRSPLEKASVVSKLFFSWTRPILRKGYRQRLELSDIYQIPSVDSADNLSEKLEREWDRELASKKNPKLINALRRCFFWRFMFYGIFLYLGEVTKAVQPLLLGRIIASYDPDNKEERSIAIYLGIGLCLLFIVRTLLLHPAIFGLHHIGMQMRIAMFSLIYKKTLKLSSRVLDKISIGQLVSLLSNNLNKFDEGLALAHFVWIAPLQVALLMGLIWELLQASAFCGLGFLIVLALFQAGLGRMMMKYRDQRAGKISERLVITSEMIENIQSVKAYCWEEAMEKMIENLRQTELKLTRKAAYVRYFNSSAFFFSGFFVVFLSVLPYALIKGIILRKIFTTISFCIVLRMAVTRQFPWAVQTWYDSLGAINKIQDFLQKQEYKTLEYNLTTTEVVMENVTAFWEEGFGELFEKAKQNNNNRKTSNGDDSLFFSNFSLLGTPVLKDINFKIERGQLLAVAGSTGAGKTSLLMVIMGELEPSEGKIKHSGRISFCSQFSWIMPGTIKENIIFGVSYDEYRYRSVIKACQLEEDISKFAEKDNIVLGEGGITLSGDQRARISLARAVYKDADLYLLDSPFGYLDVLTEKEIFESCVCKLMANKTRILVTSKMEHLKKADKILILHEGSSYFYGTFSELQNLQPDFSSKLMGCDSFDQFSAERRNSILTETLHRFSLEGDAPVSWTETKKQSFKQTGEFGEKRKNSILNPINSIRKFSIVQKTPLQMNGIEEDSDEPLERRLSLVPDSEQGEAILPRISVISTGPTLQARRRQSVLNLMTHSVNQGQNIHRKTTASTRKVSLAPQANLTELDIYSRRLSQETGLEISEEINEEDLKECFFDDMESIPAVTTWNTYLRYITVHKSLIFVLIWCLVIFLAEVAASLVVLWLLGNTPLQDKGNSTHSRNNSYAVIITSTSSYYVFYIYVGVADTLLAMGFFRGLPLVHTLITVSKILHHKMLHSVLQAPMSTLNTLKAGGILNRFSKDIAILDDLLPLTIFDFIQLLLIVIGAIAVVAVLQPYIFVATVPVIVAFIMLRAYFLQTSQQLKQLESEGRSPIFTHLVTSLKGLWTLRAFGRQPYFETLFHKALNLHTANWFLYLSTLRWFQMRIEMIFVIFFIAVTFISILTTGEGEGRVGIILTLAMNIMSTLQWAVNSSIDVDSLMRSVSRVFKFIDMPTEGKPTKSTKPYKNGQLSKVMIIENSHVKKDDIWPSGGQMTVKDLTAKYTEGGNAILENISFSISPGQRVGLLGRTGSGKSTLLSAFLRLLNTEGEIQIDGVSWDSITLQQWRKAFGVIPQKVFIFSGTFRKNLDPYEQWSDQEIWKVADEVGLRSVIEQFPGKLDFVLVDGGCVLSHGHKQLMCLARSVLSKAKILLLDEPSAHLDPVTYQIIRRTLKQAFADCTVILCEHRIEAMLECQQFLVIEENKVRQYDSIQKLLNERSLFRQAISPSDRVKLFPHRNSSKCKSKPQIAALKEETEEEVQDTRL
row,pEC50,Structure (SMILES)
1,~6.03,CCc1nnc2n1N=C(c1ccc(OC)c(OC)c1)CS2

# Test system: Cystic fibrosis transmembrane conductance regulator (Homo sapiens), P13569 [N1303K]
# Assay: Corrector activity at HRP tagged CFTR N1303K mutant (unknown origin) expressed in FRT cells assessed as stabilization of CFTR mutant in plasma membrane by measuring enhanced HRP signal at 5 uM incubated for 24 hrs by ELISA
# Settings: filed as activator
# Cystic fibrosis transmembrane conductance regulator (Homo sapiens), P13569 [N1303K], sequence (P13569 whole entry N1303K): as the sequence (P13569 whole entry G551D) above, with D551G, N1303K counted along it
row,Activity,Structure (SMILES)
1,Active,CCc1nnc2n1N=C(c1ccc(OC)c(OC)c1)CS2

# Test system: Cystic fibrosis transmembrane conductance regulator (Homo sapiens), P13569 [G551D]
# Assay: Potentiation of CFTR G551D mutant (unknown origin) expressed in FRT cells assessed as increase in chloride current at 10 uM in presence of VX-770 by voltage clamp electrophysiology recording relative to VX-770 alone
# Type: cell-based
# Settings: filed as activator
# Cystic fibrosis transmembrane conductance regulator (Homo sapiens), P13569 [G551D], sequence (P13569 whole entry G551D): as the sequence (P13569 whole entry G551D) above
row,Structure (SMILES),Activity [%]
1,FC(F)(F)C1=Nn2c(nnc2-c2cc(Cl)ccc2Br)SC1,171
2,COc1cc(Br)c(-c2nnc3n2N=C(C(C)C)CS3)cc1OC,106
3,CCc1nnc2n1N=C(c1ccc(OC)c(OC)c1)CS2,204
4,COc1ccc(Br)c(-c2nnc3n2N=C(C(C)C)CS3)c1,232
5,FC(F)(F)C1=Nn2c(nnc2-c2ccc(Cl)cc2Cl)SC1,159
6,COc1ccc(C2=Nn3c(nnc3-c3ccc(Cl)cc3Cl)SC2)cc1,142
7,CC(C)(C)C1=Nn2c(nnc2-c2cc(Cl)ccc2Br)SC1,267
8,COc1ccc(F)c(-c2nnc3n2N=C(C(C)C)CS3)c1,237
9,CC(C)C1=Nn2c(nnc2-c2cc(Cl)ccc2Br)SC1,267
10,CC(C)(C)C1=Nn2c(nnc2-c2ccc(Cl)cc2Cl)SC1,379
11,COc1ccc(OC)c(-c2nnc3n2N=C(C(C)C)CS3)c1,166
12,CCc1nnc2n1N=C(c1ccc(Cl)c(Cl)c1)CS2,103
13,CC(C)C1=Nn2c(nnc2-c2cc(Cl)ccc2Cl)SC1,196
14,CC(C)C1=Nn2c(nnc2-c2ccc(Cl)cc2Cl)SC1,204
15,CCC1=Nn2c(nnc2-c2cc(OC)c(OC)c(OC)c2)SC1,119

# Results, then the compound that gave them:
row,Activity [%],Structure (SMILES)
1,257,CCC1=Nn2c(nnc2-c2ccc(Cl)cc2Cl)SC1
2,137,CC1=Nn2c(nnc2-c2ccc(Cl)cc2Cl)SC1
3,187,CCC1=Nn2c(nnc2-c2ccc(Cl)c(Cl)c2)SC1
4,149,CCC1=Nn2c(nnc2-c2ccc(Cl)cc2)SC1
5,118,CCC1=Nn2c(nnc2-c2cc(Cl)ccc2Br)SC1
6,162,CCC1=Nn2c(nnc2-c2cccc(Cl)c2)SC1
7,155,CC1=Nn2c(nnc2-c2cc(Cl)ccc2Br)SC1
8,129,CCC1=Nn2c(nnc2-c2cccc(Cl)c2Cl)SC1
9,107,CCC1=Nn2c(nnc2-c2ccc(OC)c(OC)c2)SC1
